From patent US20110092505A1, “ORGANIC COMPOUNDS” (priority 2008, published 2011)
Where two headings read alike, the source gives them in different places.

What was measured:
[1] = target: T1, protein kinase D2 (PKD2) (Homo sapiens, UniProt Q9BZL6); experiment: PKD2 TR-FRET (LANCE) kinase assay; type: biochemical; conditions: full length wild-type enzyme, 20 μM ATP, syntide-2 substrate; read-out: Inhibitory Activity PKD2
T1 construct: This assay is performed with full length wild-type enzyme purchase from Invitrogen; purchased Invitrogen
T1 sequence (Q9BZL6 1-878): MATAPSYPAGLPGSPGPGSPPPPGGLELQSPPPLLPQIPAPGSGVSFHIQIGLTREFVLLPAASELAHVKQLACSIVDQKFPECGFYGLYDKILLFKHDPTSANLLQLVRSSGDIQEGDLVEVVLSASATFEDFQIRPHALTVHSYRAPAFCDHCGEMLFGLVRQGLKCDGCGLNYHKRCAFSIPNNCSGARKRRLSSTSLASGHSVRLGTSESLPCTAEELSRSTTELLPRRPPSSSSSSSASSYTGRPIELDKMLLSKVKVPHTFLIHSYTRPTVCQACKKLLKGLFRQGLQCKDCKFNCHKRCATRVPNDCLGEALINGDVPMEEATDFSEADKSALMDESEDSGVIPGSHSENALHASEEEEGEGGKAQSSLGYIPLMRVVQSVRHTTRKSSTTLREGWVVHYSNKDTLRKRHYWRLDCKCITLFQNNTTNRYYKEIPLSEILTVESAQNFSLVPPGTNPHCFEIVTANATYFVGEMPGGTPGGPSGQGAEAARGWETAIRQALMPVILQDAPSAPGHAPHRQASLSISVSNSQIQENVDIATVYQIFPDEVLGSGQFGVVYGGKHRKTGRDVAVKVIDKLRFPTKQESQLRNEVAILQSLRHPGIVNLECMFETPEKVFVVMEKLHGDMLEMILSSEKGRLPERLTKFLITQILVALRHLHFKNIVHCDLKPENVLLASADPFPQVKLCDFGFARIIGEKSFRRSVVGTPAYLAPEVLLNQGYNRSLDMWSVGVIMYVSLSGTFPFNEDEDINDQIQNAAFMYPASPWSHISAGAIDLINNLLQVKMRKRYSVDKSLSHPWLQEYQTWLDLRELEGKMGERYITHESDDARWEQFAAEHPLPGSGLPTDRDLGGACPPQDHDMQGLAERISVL
Text: (§1) The assay to measure protein kinase D2 (PKD2) activity is a time-resolved fluorescence resonance transfer (TR-FRET) assay using PerkinElmer's LANCE™ technology. In this case, a biotinylated syntide-2 peptide is used as the substrate in this reaction. Phosphorylation of the syntide-2 substrate is detected by a specific antibody that recognizes the phosphorylated peptide. A second fluorophore, APC, is conjugated to streptavidin that binds the biotinylated syntide-2 peptide. […] Therefore, when the europium labeled secondary antibody binds on the phosphorylated peptide, it is brought into close contact with the APC and excites this fluorophore.
(§2) This assay is performed with full length wild-type enzyme purchase from Invitrogen. The reaction buffer consists of 35 mM Tris-HCl pH7.5, 5 mM MgCl2, 0.02% Tween-20, 20 μM ATP, 1 mM DTT and 0.2 μg/mL PKD2 enzyme. The enzyme reaction is initiated by the addition of 2 μM syntide-2 peptide substrate and the reaction carried out for 50 minutes at room temperature. The reaction is stopped by a stop/detection Buffer consisting of 50 mM EDTA, 0.18 mg/mL rabbit polyclonal anti-phospho Syntide-2 antibody, 0.5 nM europium labeled anti-rabbit IgG and 10 nM streptavidin conjugated APC. After a one hour incubation with the stop/detection buffer, the reaction is read on an Envision 2100 Reader using a LANCE™ Eu/APC dual protocol. […] IC50 values are calculated using an Activity Base (IDBS) software program.

[2] = tested on: agonist-dependent nuclear export of HDAC5; experiment: HDAC5 nuclear export assay (GFP-HDAC5, Cellomics imaging); type: cell-based; conditions: Rattus norvegicus, Ventricular myocyte, 2 h, read-out: Inhibitory Activity HDAC
Description: Compounds are evaluated in the HDAC5 nuclear export assay, a 384-well plate-based assay that enables high throughput screening (HTS) to identify small molecules that block agonist-dependent nuclear export of HDAC5. […] Neonatal rat ventricular myocytes (NRVMs) are infected with GFP-HDAC5 encoding virus and plated on gelatin-coated 384-well dishes. […] Following two hours of stimulation, cells are fixed and GFP-HDAC5 localization quantified using the Cellomics system, which provides a read-out of relative fluorescence intensity in the cytoplasmic versus nuclear compartment.

[3] = target: T2, protein kinase D1 (PKD1) (Homo sapiens, UniProt Q15139); experiment: PKD1 TR-FRET (LANCE) kinase assay; type: biochemical; conditions: full length wild-type enzyme, 20 μM ATP, syntide-2 substrate; read-out: Inhibitory Activity PKD1
T2 construct: This assay is performed with full length wild-type enzyme that is expressed and purified from Sf9 insect cells; made in house; host or cells: Sf9 insect cells
T2 sequence (Q15139 1-912): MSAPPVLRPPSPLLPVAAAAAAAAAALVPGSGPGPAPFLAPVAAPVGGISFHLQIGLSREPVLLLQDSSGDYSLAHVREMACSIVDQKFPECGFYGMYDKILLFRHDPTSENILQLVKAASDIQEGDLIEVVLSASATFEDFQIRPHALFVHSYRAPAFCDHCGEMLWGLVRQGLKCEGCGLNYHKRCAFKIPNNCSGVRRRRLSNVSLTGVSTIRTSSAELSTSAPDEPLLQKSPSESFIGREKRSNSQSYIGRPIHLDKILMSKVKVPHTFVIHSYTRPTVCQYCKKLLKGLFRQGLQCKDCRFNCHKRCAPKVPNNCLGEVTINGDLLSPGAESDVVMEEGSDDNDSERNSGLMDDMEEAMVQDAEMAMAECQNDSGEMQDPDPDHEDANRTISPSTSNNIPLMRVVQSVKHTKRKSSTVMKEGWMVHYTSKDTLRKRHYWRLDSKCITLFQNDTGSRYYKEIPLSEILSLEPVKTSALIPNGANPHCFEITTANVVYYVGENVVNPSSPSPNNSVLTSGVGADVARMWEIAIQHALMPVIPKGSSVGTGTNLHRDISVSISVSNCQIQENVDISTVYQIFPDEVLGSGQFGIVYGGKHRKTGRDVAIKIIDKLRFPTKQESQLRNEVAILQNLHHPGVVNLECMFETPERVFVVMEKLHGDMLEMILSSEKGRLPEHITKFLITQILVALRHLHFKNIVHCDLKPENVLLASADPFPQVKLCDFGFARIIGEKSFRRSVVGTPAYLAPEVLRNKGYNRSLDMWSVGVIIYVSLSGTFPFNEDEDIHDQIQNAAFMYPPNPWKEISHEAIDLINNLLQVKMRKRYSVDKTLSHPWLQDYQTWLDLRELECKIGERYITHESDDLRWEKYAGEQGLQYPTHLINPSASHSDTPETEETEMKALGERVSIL
Text: as §1, with “D1 (PKD1)” for “D2 (PKD2)”
as §2, with “that is expressed and purified” for “purchase”, “Sf9 insect cells.” for “Invitrogen.”, “PKD1” for “PKD2”, “APC.” for “APC. After a one hour incubation with the stop/detection buffer, the reaction is read on an Envision 2100 Reader using a LANCE™ Eu/APC dual protocol.”

[4] = target: T3, protein kinase D3 (PKD3) (Homo sapiens, UniProt O94806); experiment: PKD3 TR-FRET (LANCE) kinase assay; type: biochemical; conditions: full length wild-type enzyme, 20 μM ATP, syntide-2 substrate; read-out: Inhibitory Activity PKD3
T3 construct: This assay is performed with full length wild-type enzyme that is purchased from Invitrogen; purchased Invitrogen
T3 sequence (O94806 1-890): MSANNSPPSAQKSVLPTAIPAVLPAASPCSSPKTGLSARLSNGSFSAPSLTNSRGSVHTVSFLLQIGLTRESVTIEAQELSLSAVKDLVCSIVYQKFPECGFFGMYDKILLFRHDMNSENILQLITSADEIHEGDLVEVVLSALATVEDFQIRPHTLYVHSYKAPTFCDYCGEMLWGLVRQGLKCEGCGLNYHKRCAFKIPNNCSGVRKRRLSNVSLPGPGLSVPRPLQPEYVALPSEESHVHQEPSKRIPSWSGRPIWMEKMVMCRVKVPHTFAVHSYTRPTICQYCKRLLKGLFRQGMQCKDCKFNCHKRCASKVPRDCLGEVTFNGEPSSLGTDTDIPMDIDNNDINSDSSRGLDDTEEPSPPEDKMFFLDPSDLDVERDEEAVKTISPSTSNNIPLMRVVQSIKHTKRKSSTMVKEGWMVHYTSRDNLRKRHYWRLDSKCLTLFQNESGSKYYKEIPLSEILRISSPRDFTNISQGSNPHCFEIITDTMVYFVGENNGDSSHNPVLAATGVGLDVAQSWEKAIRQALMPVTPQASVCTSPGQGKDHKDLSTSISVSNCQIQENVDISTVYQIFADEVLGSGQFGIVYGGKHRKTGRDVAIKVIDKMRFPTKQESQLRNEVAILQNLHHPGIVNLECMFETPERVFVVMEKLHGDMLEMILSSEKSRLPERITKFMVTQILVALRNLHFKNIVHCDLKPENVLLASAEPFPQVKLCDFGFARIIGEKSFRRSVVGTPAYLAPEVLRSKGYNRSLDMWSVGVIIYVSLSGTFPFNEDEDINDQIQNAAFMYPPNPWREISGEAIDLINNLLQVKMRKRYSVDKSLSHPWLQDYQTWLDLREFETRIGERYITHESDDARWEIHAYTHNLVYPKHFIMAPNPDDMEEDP
Text: as §1, with “D3 (PKD3)” for “D2 (PKD2)”
as §2, with “that is purchased” for “purchase”, “PKD3” for “PKD2”, “buffer” for “Buffer”

Row | IC50 ([2]; neonatal rat ventricular myocytes, PGF2α stimulation, two hours) | Structure (SMILES) | IC50 [1] | IC50 [3] | IC50 [2] | IC50 [4]
1 | > 1 µM | Cn1ccc(Nc2cc(-c3cc(C#N)cc(N4CCNCC4)n3)ccn2)n1 [2′-(1-Methyl-1H-pyrazol-3-ylamino)-6-piperazin-1-yl-[2,4′]bipyridinyl-4-carbonitrile] | 0.076 µM | 0.008 µM | – | –
2 | – | C[C@@H]1CN(c2cc(C(N)=O)cc(-c3ccnc(NC4CCCCC4)c3)n2)CCN1 [2′-Cyclohexylamino-6-((R)-3-methylpiperazin-1-yl)-[2,4′]bipyridinyl-4-carboxylic acid amide] | 0.06 µM | 0.006 µM | 0.679 µM | –
3 | – | CC(C)Nc1cc(-c2cc(-c3cn[nH]c3)cc(N3CCNCC3)n2)ccn1 [iso-Propyl-[6-piperazin-1-yl-4-(1H-pyrazol-4-yl)-[2,4′]bipyridinyl-2′-yl]-amine] | 0.003 µM | – | 0.092 µM | < 0.001 µM
